{"source": "paper PMC8575457", "about": "“Molecular reconstruction of recurrent evolutionary switching in olfactory receptor specificity” (eLife, 2021)", "experiment_in_all_cases": "single sensillum extracellular recording, Ir decoder neuron", "conditions_in_all_cases": "1% v/v odor in water, 10 ul, 500 ms pulse; agonist", "key": {"DmelIr75b^DsecS1": {"biological_target": "T1, DmelIr75b^DsecS1 (Drosophila melanogaster, UniProt A0A1S6EMU4, I210K/M217L/K220Q/N259S/I277M/F289L/Q291K/T523S, form not given)", "T1 construct": "gene IR75b; UAS transgene in Ir decoder neuron; with Ionotropic receptor 8a (D. melanogaster, endogenous)", "T1 sequence (A0A1S6EMU4 1-609 I210K/M217L/K220Q/N259S/I277M/F289L/Q291K/T523S)": "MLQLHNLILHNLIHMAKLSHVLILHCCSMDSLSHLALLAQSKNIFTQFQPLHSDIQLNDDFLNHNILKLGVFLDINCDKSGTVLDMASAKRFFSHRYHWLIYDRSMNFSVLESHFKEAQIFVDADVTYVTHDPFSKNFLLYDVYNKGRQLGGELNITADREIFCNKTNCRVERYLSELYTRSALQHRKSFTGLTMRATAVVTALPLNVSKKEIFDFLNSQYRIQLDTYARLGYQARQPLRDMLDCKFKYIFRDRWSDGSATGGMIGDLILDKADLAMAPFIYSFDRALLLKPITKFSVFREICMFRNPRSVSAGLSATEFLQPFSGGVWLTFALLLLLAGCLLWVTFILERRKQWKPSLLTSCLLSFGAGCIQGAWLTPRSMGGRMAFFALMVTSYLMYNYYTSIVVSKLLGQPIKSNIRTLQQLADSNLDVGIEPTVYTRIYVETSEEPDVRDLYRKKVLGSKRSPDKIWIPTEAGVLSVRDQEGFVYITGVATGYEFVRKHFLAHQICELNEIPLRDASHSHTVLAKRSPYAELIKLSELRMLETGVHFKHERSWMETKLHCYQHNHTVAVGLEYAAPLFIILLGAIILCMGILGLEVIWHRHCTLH", "T1 sequence (Q9W365 18-936 partner)": "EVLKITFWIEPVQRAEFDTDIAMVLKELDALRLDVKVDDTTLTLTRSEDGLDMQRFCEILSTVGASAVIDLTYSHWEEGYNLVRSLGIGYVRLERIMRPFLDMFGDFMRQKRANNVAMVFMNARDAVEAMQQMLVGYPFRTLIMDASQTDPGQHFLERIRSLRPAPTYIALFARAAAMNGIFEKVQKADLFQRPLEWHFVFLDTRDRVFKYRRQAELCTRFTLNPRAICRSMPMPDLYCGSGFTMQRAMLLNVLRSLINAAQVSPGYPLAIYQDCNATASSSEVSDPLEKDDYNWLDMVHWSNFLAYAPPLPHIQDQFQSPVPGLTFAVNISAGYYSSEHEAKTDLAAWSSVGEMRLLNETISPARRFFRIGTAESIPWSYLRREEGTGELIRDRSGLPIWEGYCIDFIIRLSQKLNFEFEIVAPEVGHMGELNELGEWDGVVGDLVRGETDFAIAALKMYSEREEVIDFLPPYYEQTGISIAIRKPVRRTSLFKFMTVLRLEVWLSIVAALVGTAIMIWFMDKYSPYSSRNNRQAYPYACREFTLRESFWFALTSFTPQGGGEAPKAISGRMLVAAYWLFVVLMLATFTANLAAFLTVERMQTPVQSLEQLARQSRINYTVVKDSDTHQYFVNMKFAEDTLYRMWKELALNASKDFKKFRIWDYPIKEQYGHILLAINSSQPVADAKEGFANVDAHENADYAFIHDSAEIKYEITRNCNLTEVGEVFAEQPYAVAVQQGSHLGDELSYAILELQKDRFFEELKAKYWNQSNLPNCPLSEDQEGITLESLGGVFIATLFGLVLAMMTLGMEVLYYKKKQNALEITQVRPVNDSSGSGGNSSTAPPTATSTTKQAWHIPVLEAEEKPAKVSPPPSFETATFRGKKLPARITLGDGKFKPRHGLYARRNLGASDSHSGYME", "assay_type": "cell-based"}, "DmelIr75a [1]": {"biological_target": "T2, DmelIr75a (Drosophila melanogaster, UniProt Q9VVL1, T289S/Q536K/F538L)", "T2 construct": "gene Ir75a; full-length cDNA, UAS transgene (attP40) expressed in D. melanogaster Ir decoder neuron (Ir84a-Gal4, Ir84a mutant) with endogenous Ir8a; predicted heterotetramer; with Ionotropic receptor 8a (D. melanogaster, endogenous)", "assay_type": "cell-based"}, "DmelIr75a [2]": {"biological_target": "T3, DmelIr75a (Drosophila melanogaster, UniProt Q9VVL1, T289S/Q536K)", "T3 construct": "gene Ir75a", "T3 sequence (Q9VVL1 1-629 T289S/Q536K)": "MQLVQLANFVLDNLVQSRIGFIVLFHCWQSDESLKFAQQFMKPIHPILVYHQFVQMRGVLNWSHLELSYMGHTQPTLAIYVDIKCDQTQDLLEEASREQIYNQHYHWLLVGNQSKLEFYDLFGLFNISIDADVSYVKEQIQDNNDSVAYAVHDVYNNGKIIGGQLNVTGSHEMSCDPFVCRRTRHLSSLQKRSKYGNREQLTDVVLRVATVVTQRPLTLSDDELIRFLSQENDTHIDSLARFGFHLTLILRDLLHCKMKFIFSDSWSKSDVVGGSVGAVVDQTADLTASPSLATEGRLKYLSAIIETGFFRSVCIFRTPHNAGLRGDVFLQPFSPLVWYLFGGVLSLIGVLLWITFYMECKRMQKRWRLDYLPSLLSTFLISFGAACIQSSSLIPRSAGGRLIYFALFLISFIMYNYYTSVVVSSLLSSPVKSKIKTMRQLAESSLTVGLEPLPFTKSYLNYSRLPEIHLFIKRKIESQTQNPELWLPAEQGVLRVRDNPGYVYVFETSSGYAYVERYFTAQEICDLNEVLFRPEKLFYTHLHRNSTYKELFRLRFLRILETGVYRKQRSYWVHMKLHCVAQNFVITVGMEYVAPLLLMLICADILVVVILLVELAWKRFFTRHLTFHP", "T3 sequence (Q9W365 18-936 partner)": "T1 sequence (Q9W365 18-936 partner)"}, "DmelIr75b": {"biological_target": "T4, DmelIr75b (Drosophila melanogaster, UniProt A0A1S6EMU4)", "T4 construct": "gene IR75b", "T4 sequence (A0A1S6EMU4 1-609)": "T1 sequence (A0A1S6EMU4 1-609 I210K/M217L/K220Q/N259S/I277M/F289L/Q291K/T523S) with K210I, L217M, Q220K, S259N, M277I, L289F, K291Q, S523T", "T4 sequence (Q9W365 18-936 partner)": "T1 sequence (Q9W365 18-936 partner)"}}, "note": "Numbering of substitutions follows the chain as printed.", "data": [{"compound": "CCCC(=O)O", "note": "[C4, butyric acid]", "values": [{"measurement": "solvent-corrected response (spikes/s)", "setting": "DmelIr75b^DsecS1", "result": "this receptor still has robust sensitivity to C4"}, {"measurement": "solvent-corrected response (spikes/s)", "setting": "DmelIr75a [1]", "result": "produced a receptor that faithfully recapitulated the response properties of DsecIr75a"}, {"measurement": "solvent-corrected response (spikes/s)", "setting": "DmelIr75a [2]", "result": "broadly tuned receptor that responds maximally (albeit weakly) to C2, C3, and C4"}, {"measurement": "solvent-corrected response (spikes/s)", "setting": "DmelIr75b", "result": "still has robust sensitivity to C4, like DmelIr75b but unlike DsecIr75b"}]}]}
